# Reference: US12240834B2, “Polymorphs of [2-(1H-indol-3-yl)-1H-imidazol-4-yl] (3,4,5-trimethoxyphenyl)methanone and its salts” (VERU INC., priority 2022, dated 2025)
# How the values were obtained:
# [1] = Polymorph screen summary of forms (stability designation); assay type: physicochemical
# Excerpt: Polymorphism is the ability of a chemical entity to exist in different three-dimensional arrangements in the solid state. Different polymorphic forms of a compound can have different physical properties. […] The screen was designed to prepare as many novel crystalline forms as possible and characterize these polymorphs for use in a pharmaceutical product. […] Samples generated during the study were characterized using differential scanning calorimetry (DSC), polarized light microscopy, thermogravimetric analysis (TGA), X-ray powder diffraction (XRD), Fourier transform infrared spectroscopy (FT-IR), and dynamic vapor sorption (DVS). […] These were essentially the same except for minor changes in the diffraction pattern and DSC thermograms. […] The HCl salt was characterized polymorphic as multiple polymorphic forms were made and characterized as described below. […] Based on diffraction behavior, each polymorphic form was studied to determine differentiation. The characterization of each hydrochloride polymorph form began with an X-ray powder diffraction (XRD) data comparison of each form with the other forms. This was generally followed by DSC and TGA analysis.
# [2] = Storage of solid forms at ambient conditions (form conversion)
# [3] = Non-competitive slurry experiments (solid form stability, XRD readout); assay type: physicochemical; settings: ambient temperature
# Protocol: In addition to the solvent recrystallization experiments (Example 3), non-competitive slurry (Example 4) and competitive slurry (Example 5) experiments were performed to make new solid-state forms. Non-competitive slurry experiments were performed to search for new solid-state forms. These experiments relied on solubility differences of different polymorphic forms (if the compound is polymorphic).
# The solution is saturated with respect to the polymorphic form dissolved. […] In addition, noncompetitive slurry experiments are often useful in identifying solvents that form solvates with the compound.
# The slurry experiments were performed by exposing excess starting material, which was in all cases in this experiment Form B, to neat single and binary solvent systems and agitating the resulting suspensions for several days at ambient temperature. The solids were vacuum filtered and analyzed by XRD to determine the resulting form. To avoid possible desolvation or physical change after isolation, the samples were not further dried before X-ray analysis.
# [4] = Hygroscopicity by dynamic vapor sorption (DVS); assay type: physicochemical; settings: for DVS behaviour: moisture adsorption-desorption
# Protocol: Hygroscopicity—Dynamic Vapor Sorption (DVS)
# DVS is a gravimetric technique that measures how quickly and how much of a solvent (water) is absorbed by a sample. The relative humidity or vapor concentration surrounding the sample is varied while the change in mass of the sample is measured. […] The mass values at each relative humidity step are used to generate an isotherm. Isotherms are divided in two components: sorption for increasing humidity steps and desorption for decreasing humidity steps. A plot of kinetic data is also used to show the change in mass and humidity as a function of time.
# The samples were analyzed using a TA Q5000 automated dynamic vapor sorption analyzer. The samples were dried at higher temperature than ambient over a period of time and then cooled to 25° C. with a dry nitrogen purge over them until they no longer lost mass at 0% RH (relative humidity). The samples were then subjected to 0 to 90% RH, back to 10% RH at 25° C. in 10% RH steps.
smiles,measurement,setting,value
COc1cc(C(=O)c2c[nH]c(-c3c[nH]c4ccccc34)n2)cc(OC)c1OC.Cl [Form GH],Description (stability / hydrate designation of the form),[1],Hydrate
COc1cc(C(=O)c2c[nH]c(-c3c[nH]c4ccccc34)n2)cc(OC)c1OC.Cl [Form I],form conversion on storage,[2]; after a month of storage at ambient conditions,converted to a mixture of Form CH and Form H
same,Description (stability / hydrate designation of the form),[1],Metastable
COc1cc(C(=O)c2c[nH]c(-c3c[nH]c4ccccc34)n2)cc(OC)c1OC.Cl [Form FH],Description (stability / hydrate designation of the form),[1],Hydrate
COc1cc(C(=O)c2c[nH]c(-c3c[nH]c4ccccc34)n2)cc(OC)c1OC [free base (Form I)],form resulting from slurry (XRD),"[3]; slurried in acetone, THF or toluene, several days",Form II
COc1cc(C(=O)c2c[nH]c(-c3c[nH]c4ccccc34)n2)cc(OC)c1OC.Cl [Form B],Final Form,"[3]; 1-Propanol/EtOAc slurry, 11 Days",Form E1
same,Final Form,"[3]; 2-Propanol/THF slurry, 11 Days",Form E1
same,Final Form,"[3]; ACN/Acetone slurry, 11 Days",Form E1
same,Final Form,"[3]; Acetone slurry, 14 Days",Form D
same,Final Form,"[3]; Acetonitrile slurry, 14 Days",Form D
same,Final Form,"[3]; Ethanol slurry, 14 Days",Solvate
same,Final Form,"[3]; Ethanol/Toluene slurry, 11 Days",Form E1
same,Final Form,"[3]; Ethanol/acetonitrile slurry, 11 Days",Form E1
same,Final Form,"[3]; Ethyl acetate slurry, 14 Days",Form B
same,Final Form,"[3]; Heptane slurry, 14 Days",Form B
same,Final Form,"[3]; MeOH/Acetone slurry, 11 Days",Low crystallinity
same,Final Form,"[3]; Methanol slurry, 14 Days",Solvate
same,Final Form,"[3]; Methanol/DCM slurry, 11 Days",Solvate
same,Final Form,"[3]; Methanol/Water slurry, 11 Days",Low crystallinity
same,Final Form,"[3]; Methylene chloride slurry, 14 Days",Form B
same,Final Form,"[3]; TFE/DCM slurry, 11 Days",Form B
same,Final Form,"[3]; TFE/EtOAc slurry, 11 Days",Low order
same,Final Form,"[3]; THF slurry, 14 Days",Form B
same,Final Form,"[3]; Toluene slurry, 14 Days",Form B
same,Final Form,"[3]; Water slurry, 14 Days",Low Crystallinity
same,Description (stability / hydrate designation of the form),[1],Metastable
COc1cc(C(=O)c2c[nH]c(-c3c[nH]c4ccccc34)n2)cc(OC)c1OC.Cl [Form A],total weight gain (DVS),[4]; at 90% RH,about 0.4%
same,DVS behaviour,[4],very hydrophobic and does not appear to be prone to hydrate formation
same,Description (stability / hydrate designation of the form),[1],Metastable
COc1cc(C(=O)c2c[nH]c(-c3c[nH]c4ccccc34)n2)cc(OC)c1OC.Cl [Form CH],water uptake (DVS),"[4]; at high humidity, returned to starting mass upon completion of the scan",up to 0.95 wt %
same,DVS behaviour,[4],very low uptake of water adsorption
same,Description (stability / hydrate designation of the form),[1],Monohydrate
COc1cc(C(=O)c2c[nH]c(-c3c[nH]c4ccccc34)n2)cc(OC)c1OC.Cl [Form H],form conversion on holding at ambient conditions,[2]; held at ambient conditions,not observed to convert to any other polymorphic form
same,Description (stability / hydrate designation of the form),[1],Stable Form
COc1cc(C(=O)c2c[nH]c(-c3c[nH]c4ccccc34)n2)cc(OC)c1OC.Cl [Form D],Description (stability / hydrate designation of the form),[1],Metastable
